For one data set, the target named is T1, PKD1 (Homo sapiens, UniProt Q15139).
T1 sequence (Q15139 1-912): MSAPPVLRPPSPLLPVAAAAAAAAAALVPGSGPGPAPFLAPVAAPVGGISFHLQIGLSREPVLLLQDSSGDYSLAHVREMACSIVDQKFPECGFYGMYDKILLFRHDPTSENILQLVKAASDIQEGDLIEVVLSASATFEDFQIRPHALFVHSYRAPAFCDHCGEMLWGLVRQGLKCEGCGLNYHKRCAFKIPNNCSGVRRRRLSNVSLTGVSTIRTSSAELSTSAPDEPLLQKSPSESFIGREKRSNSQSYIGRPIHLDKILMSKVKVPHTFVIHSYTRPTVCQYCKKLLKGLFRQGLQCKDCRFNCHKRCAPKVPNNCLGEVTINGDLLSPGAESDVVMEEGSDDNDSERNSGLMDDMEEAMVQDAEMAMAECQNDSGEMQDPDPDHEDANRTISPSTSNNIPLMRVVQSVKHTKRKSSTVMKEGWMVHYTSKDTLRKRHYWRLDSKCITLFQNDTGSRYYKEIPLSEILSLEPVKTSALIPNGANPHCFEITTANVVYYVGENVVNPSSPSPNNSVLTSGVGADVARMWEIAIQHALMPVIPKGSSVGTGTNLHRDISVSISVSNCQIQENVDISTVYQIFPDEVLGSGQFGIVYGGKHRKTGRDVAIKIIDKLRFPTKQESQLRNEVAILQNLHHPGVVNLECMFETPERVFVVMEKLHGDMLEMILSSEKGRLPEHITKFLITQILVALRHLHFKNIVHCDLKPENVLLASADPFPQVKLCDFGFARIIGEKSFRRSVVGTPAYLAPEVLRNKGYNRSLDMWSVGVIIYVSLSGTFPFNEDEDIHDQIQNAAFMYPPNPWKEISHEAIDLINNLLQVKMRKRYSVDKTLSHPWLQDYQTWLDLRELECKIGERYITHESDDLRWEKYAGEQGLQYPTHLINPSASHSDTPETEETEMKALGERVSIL
Kind of data set: IMAP-FP PKD1 assay. The format is biochemical. The text has this: See Sharlow, E. R., et. al., J Biol Chem, 283: 33516-33526, (2008). The assay established the concentration of inhibitor that is required to reduce PKD1 activity by 50% (IC50), as shown in Table 2 above.

The target in data set [1] is T2, purified recombinant human PKD1 (Homo sapiens, UniProt Q15139).
T2 sequence (Q15139 1-912): T1 sequence (Q15139 1-912)
Kind of data set: radiometric PKD kinase activity assay. The format is biochemical. Particulars: for IC50: read-out: IC50 radiometric PKD1. The procedure:
The radiometric PKD kinase assay was carried out by co-incubating 0.5 μCi γ-32P-ATP (PerkinElmer, Boston, Mass.), 20 μM ATP, 50 ng purified recombinant human PKD (PKD1, PKD2, PKD3) proteins, and 2.5 μg Syntide-2 (Sigma) in 50 μl kinase buffer that contains 50 mM Tris-HCl, pH 7.5, 4 mM MgCl2, 10 mM β-mercaptoethanol. The reaction was carried out under sub-saturation conditions, such that the initial rate was within linear kinetic range. The reaction mixture was incubated at 30° C. for 10 min, followed by spotting 25 μl of the mix onto a Whatman P81 filter paper (Whatman Inc, Clifton, N.J.). The filter papers were then washed three times in 0.5% phosphoric acid, air-dried, and counted using a Beckman LS6500 multi-purpose scintillation counter (Beckman, Fullerton, Calif.).

This note sets out measurements from patent US9840515B2, “Protein kinase D inhibitors” (University of Pittsburgh—Of the Commonwealth System of …, priority 2010, dated 2017).

In the case of `O=C1NCCCc2c1oc1cc(Cl)c(O)c(Cl)c21` [kb-NB96-43, 6,8-Dichloro-7-hydroxy-2,3,4,5-tetrahydro-[1]benzoxolo[2,3-c]azepin-1-one], the melting point (as a rule, the temperature of the solid-liquid transition) fell in the range of 298 to 301 °C. Also, the “IC50 IMAP-FP PKD1” value on PKD1 is listed as “not inhibitory”.

Take `O=C1NCCc2c1[nH]c1ccc(OCc3ccccc3)cc21` [kb-NB123-52, 2,3,4,9-Tetrahydro-6-benzyloxy-1H-pyrido[3,4-b]indol-1-one]: the melting point lay in the range of 208 to 210 °C. In addition, the “IC50 IMAP-FP PKD1” value on PKD1 was “not inhibitory”.

`O=C1NCCCc2c1oc1cc(Cl)c(O)cc21` [kb-NB96-47-5, 8-Chloro-7-hydroxy-2,3,4,5-tetrahydro-[1]benzoxolo[2,3-c]azepin-1-one] yielded a melting point of 327 to 332 °C. In addition, the IC50 (commonly the midpoint of a concentration-inhibition curve) against PKD1 was above 100000 nM.

`O=C1NCCC(=NOCc2ccccc2)c2c1oc1ccc(O)cc21` [kb-NB142-10, 7-Hydroxy-5-[(phenylmethoxy)azamethylene]-2H,3H,4H-azepino[5,6-d]benzo[b]furan-1-one] yielded a melting point of 103 to 110 °C. On PKD1, the “IC50 IMAP-FP PKD1” value was “not inhibitory”.

Take `O=C1NCCCc2c1[nH]c1ccc(OCc3ccccc3)cc21` [kb-NB123-53, 3,4,5,10-Tetrahydro-7-benzyloxy-azepino[3,4-b]indol-1(2H)-one]: at PKD1, the “IC50 IMAP-FP PKD1” value is “not inhibitory”.

In turn, `O=C1NCCC(O)c2c1oc1ccc(O)cc21` (centres unmarked) [kb-NB123-89, 5,7-Dihydroxy-2H,3H,4H,5H-azepino[5,6-d]benzo[b]furan-1-one] gave a melting point of 280 to 282 °C. Half-maximal inhibition against PKD1 (IC50) was put at 24100 ± 710 nM. Further, in data set [1], the half-inhibitory concentration (IC50) stood at 1230 ± 210 nM.

Molecule `Cc1ccc(S(=O)(=O)NN=C2CCNC(=O)c3oc4ccc(O)cc4c32)cc1` [kb-NB142-11, 7-Hydroxy-5-({[(4-methylphenyl)sulfonyl]amino}azamethylene)-2H,3H,4H-azepino[5,6-d]benzo[b]furan-1-one] had a melting point of 220 to 224 °C. The same molecule came in with an IC50 against PKD1 of 38200 ± 1170 nM.

`O=C1NCCCc2c1oc1ccc(O)c(F)c21` [kb-NB96-21, 6-Fluoro-7-hydroxy-2,3,4,5-tetrahydro-[1]benzoxolo[2,3-c]azepin-1-one]: the melting point is above 300 °C. At PKD1, this molecule showed an IC50 of 1300 ± 50 nM. Also, in data set [1], the IC50 was determined as 240 nM.

`O=C1NCCC(=O)c2c1oc1ccc(O)cc21` [kb-NB123-63, 7-Hydroxy-2H,3H,4H-azepino[5,6-d]benzo[b]furan-1,5-dione]: the melting point is above 300 °C. Half-maximal inhibition against PKD1 (IC50) required 14900 ± 1200 nM. The concentration for half-maximal inhibition (IC50) in data set [1] turned out to be 850 ± 110 nM.

As to `CC(=O)Nc1ccc2[nH]c3c(c2c1)CCCNC3=O` [kb-NB123-94], the melting point is above 300 °C. The “IC50 IMAP-FP PKD1” value on PKD1 is “not inhibitory”.

`C=CCOc1ccc2oc3c(c2c1Cl)CCCNC3=O` [kb-NB96-50, 7-Allyloxy-6-chloro-2,3,4,5-tetrahydro-[1]benzoxolo[2,3-c]azepin-1-one] showed a melting point of 192 to 194 °C. Further, the “IC50 IMAP-FP PKD1” value against PKD1 is recorded as “not inhibitory”.

Molecule `Nc1ccc2[nH]c3c(c2c1)CCNC3=O` [kb-NB142-08, 6-Amino-2,3,4,9-tetrahydro-1H-pyrido[3,4-b]indol-1-one] gave a melting point of 280 to 282 °C. This molecule came in with an IC50 on PKD1 of 74400 ± 2200 nM. The IC50 in data set [1] came out at 15700 ± 190 nM.

For `CN1CCSc2c(sc3ccc(O)cc23)C1=O` [kb-NB165-17, 2,3-Dihydro-4-methyl-9-hydroxy-[1]benzothieno[2,3-f]-1,4-thiazepin-5-one], the melting point lay in the range of 265 to 268 °C. The IC50 in data set [1] came to 450 ± 50 nM.

Regarding `O=C1NCCSc2c1sc1ccc(O)c(Br)c21` [kb-NB184-52, 3,4-Dihydro-9-hydroxy-10-bromo-[1]benzothieno[2,3-f]-1,4-thiazepin-5(2H)-one], the melting point is 235 to 238 °C (dec.). The IC50 in data set [1] worked out at 48 nM.

Regarding `C/C=C/c1c(O)ccc2oc3c(c12)CCCNC3=O` [kb-NB96-30, 6-[(E)-2-(Prop-1-enyl)]-7-hydroxy-2,3,4,5-tetrahydro-[1]benzoxolo[2,3-c]azepin-1-one], the melting point is above 300 °C. The molecule further returned an IC50 at PKD1 of 1000 ± 100 nM. Further, the IC50 in data set [1] is 240 nM.

`C=CCc1c(O)ccc2oc3c(c12)CCCNC3=O` [kb-NB96-02, 6-Allyl-7-hydroxy-2,3,4,5-tetrahydro-[1]benzoxolo[2,3-c]azepin-1-one] showed a melting point of 255 to 257 °C. Moreover, at PKD1, the IC50 is 2400 ± 300 nM. For the same molecule, the IC50 in data set [1] was 1580 nM.

`CC(=O)Nc1ccc2[nH]c3c(c2c1)CCNC3=O` [kb-NB123-93, N-(2,3,4,9-Tetrahydro-1-oxo-1H-pyrido[3,4-b]indol-6-yl)-acetamide] returned a melting point above 300 °C. Also, at PKD1, the “IC50 IMAP-FP PKD1” value is “not inhibitory”.

`O=C1NCCCSc2c1sc1ccc(OCc3ccccc3)cc21` [kb-NB165-89, 2,3,4,5-Tetrahydro-10-benzyloxybenzo[b]thieno[2,3-f]-1,5-thiazocin-6-one] had a melting point of 198 to 199 °C. Moreover, in data set [1], the IC50 turned out to be 21700 nM.

In turn, `Nc1ccc2[nH]c3c(c2c1)CCCNC3=O` [kb-NB142-01] returned a melting point of 202 to 207 °C. Moreover, the midpoint of inhibition on PKD1, the IC50, lay at 47100 ± 2500 nM. For the same molecule, the IC50 in data set [1] amounted to 9680 ± 1010 nM.

For `c1ccc(COc2ccc3sc4c(c3c2)SCCNC4)cc1` [kb-NB165-81, 2,3,4,5-Tetrahydro-9-benzyloxy-[1]benzothieno[2,3-f]-1,4-thiazepine], the melting point was 144 to 145 °C. Besides, the IC50 in data set [1] turned out to be 39600 nM.

`O=C1NCCC(=NNc2ccccc2)c2c1oc1ccc(O)cc21` [kb-NB142-05, 7-Hydroxy-5-[(phenylamino)azamethylene]-2H,3H,4H-azepino[5,6-d]benzo[b]furan-1-one] registered a melting point of 234 to 236 °C. The same molecule returned an IC50 on PKD1 of 21700 ± 520 nM. Also, in data set [1], the IC50 came to 1130 nM.

The molecule `O=C1NCCCc2c1oc1ccc(O)c(Cl)c21` [kb-NB77-88, 6-Chloro-7-hydroxy-2,3,4,5-tetrahydro-[1]benzoxolo[2,3-c]azepin-1-one] came in with a melting point above 300 °C. In addition, the IC50 at PKD1 was determined as 1400 ± 100 nM. Besides, the IC50 in data set [1] stood at 890 nM.

Take `COC(=O)c1sc2ccc(OC)cc2c1NCCCO` [kb-NB184-80, Methyl 3-(3-hydroxypropylamino)-5-methoxybenzo[b]thiophene-2-carboxylate]: the melting point was in the range of 116 to 120 °C. The “IC50 radiometric PKD1” value in data set [1] is “not inhibitory”.

As for `Oc1ccc2oc3c(c2c1)CCCN1CCN=C31` [kb-NB165-15, 5H,6H,7H-Benzo[b]2-imidazolino[1′,2′-7,1]azepino[5,6-d]furan-9-ol], the melting point was 230 to 232 °C (dec.). The “IC50 PKD1” value in data set [1] (radiometric kinase activity assay, in vitro) is “No inhibition”.

Turning to `O=C1NCCc2c1[nH]c1ccc(O)cc21` [kb-NB123-59, 2,3,4,9-Tetrahydro-6-hydroxy-1H-pyrido[3,4-b]indol-1-one], the melting point lay in the range of 244 to 247 °C. On PKD1, this molecule had an IC50 of 19400 ± 1400 nM. Further, the IC50 in data set [1] turned out to be 1570 ± 200 nM.
